The record followed here is patent publication US20080214606A1, “Methods for the Identification and Use of Compounds Suitable for the Treatment of Drug Resistant Cancer Cells” (The Government of the United States of America as …, priority 2004, published 2008).

Sequence of ABCB1 (P08183 whole entry): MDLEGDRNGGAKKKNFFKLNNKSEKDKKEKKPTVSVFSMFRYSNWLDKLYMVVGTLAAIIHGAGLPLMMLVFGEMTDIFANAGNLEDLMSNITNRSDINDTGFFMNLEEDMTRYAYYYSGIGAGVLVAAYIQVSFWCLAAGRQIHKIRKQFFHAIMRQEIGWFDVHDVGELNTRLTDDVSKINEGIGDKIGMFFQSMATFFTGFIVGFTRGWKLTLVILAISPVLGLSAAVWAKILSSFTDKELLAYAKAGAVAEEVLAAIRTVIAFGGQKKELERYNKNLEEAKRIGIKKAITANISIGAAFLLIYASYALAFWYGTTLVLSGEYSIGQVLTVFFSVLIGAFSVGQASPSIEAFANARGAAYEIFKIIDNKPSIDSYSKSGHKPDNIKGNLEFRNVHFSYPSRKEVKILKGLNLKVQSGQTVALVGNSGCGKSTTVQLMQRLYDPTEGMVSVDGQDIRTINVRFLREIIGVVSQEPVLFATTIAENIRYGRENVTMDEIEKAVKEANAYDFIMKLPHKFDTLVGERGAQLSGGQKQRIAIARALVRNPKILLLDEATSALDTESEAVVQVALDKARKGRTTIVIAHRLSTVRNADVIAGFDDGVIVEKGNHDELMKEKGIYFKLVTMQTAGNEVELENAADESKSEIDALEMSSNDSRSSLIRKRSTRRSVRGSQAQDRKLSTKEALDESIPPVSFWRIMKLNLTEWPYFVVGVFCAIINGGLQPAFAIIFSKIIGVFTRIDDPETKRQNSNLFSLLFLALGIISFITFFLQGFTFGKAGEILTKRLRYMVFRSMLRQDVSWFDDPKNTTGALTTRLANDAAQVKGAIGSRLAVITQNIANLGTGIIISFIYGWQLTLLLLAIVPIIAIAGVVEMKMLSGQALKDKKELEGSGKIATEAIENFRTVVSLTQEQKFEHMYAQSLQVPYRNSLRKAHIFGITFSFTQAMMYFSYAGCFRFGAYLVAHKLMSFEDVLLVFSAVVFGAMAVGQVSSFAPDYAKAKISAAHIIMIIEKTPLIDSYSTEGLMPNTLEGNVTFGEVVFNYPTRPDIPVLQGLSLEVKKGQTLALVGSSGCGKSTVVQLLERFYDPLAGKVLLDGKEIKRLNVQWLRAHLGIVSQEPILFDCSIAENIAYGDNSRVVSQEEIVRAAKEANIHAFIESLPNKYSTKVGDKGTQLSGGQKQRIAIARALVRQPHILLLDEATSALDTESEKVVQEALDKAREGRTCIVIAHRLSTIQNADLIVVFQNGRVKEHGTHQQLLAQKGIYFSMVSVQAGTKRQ

This data set has as its target ABCB1 (Homo sapiens, UniProt P08183). The data set can be described thus: Correlation of ABCB1 expression with drug sensitivity across the NCI-60. Here is the method:
Expression levels are measured by real-time quantitative RT-PCR using the LightCycler RNA Amplification SYBR Green kit and a LightCycler machine (Roche Biochemicals, Indianapolis, Ind.). Specific oligonucleotide probes are designed for each of the ABC transporters using DNAStar Primer Select (DNASTAR Inc.), and they may be synthesized at Lofstrand Laboratories (Gaithersburg, Md.). When possible, the amplicons are designed to encompass exon-intron boundaries to avoid amplification of genomic DNA. Since the Syber Green assay detects accumulation of double stranded DNA, primers are selected (from a battery consisting of about 200 primers) that amplified a single product of the correct size.
RT-PCR is carried out on 150 ng total RNA, in the presence of 250 nM specific primers. Following reverse transcription (20 min at 50° C.), the PCR reaction consists of 45 cycles of denaturation (15 sec at 95° C.), annealing (30 sec at 58° C.), and elongation (30 sec at 72° C.). No-template (water) reaction mixtures are prepared as negative controls.
During PCR amplification, fluorescence emission is measured and recorded in real time by the LightCycler. Crossing point values are calculated, using the LightCycler software package, by the Fit Points analysis method, with baseline fluorescence set at 1. The SyberGreen assay measures accumulation of double-stranded products, and the appearance of primer dimers limits quantitation at high cycle numbers. […] The raw results are expressed as number of cycles to reach the crossing point. If the desired product is not detected, the corresponding value is adjusted to crossing points indicating no expression. To assess the contribution of experimental artifacts, selected cell lines are assessed in replicate.
Both sets are available at http://discover.nci.nih.gov. The two are combined to form a joint dataset that includes 1429 compounds.
To determine quantitatively how well the 47 genes cluster the cell lines by their tissues of origin, a statistical method is employed wherein the kappa statistic is used to indicate how well the observed clusters correspond to the nine tissue-of-origin classifications. […] To control the overall false type 1 error rate, both a step-down procedure (Westfall and Young, 1993, Resampling-Based Multiple Testing: Examples and Methods for p-value Adjustment (New York: Wiley)) and a step-up procedure (Reiner et al., 2003, Bioinformatics 19:368-375) were employed to adjust for multiple testing of all 47 genes simultaneously. In the Benjamini-Hochberg procedure the p-values are computed in the standard way by permutation, assuming that all distributions are exchangeable: the number of values in the permuted data with correlations over a threshold, divided by the number of compounds and by the number of permutations. In this analysis, the False Discovery Rate (q-value) at which each compound would be declared was calculated using the step-up procedure for positively correlated test statistics (again true because all correlations being compared are computed against the same ABC gene): in this procedure the first q-value for the largest correlation is the Bonferroni-corrected p-value for that gene; then further q-values are calculated as qj=max(pj*1429/j, qj-1). This procedure limits the expected proportion of false positives in the list 1, . . . , j to at most qj.
With `O=c1[nH]cc(F)c(=O)[nH]1` [5-fluorouracil, reference compound], the “Relationship between drug sensitivity and ABCB1 expression (in words)” value is recorded as “non-correlated or positively correlated”.
For the molecule `O=C1C=CC(=O)c2c(O)ccc(O)c21` [NSC26647], the “Pearson's Correlation Coeff” value was 0.2476.
Same read-out and setting: the figure for `NC(=O)NO` [NSC32065] is 0.3336; for `c1cc2n(n1)CCN2` [NSC51143] it is 0.4328; for `CCc1ccccc1N1CCN(C(=O)c2cc(OC)c(OC)c(OC)c2)CC1` [NSC56030] it is 0.2372.
Same read-out and setting: the figure for `NC(=S)NN=Cc1ncccc1O` [NSC95678] is 0.2475.
The same measure, in the same setting: the figure for `C=C(C)C(=O)O[C@H]1CC2=C[C@@H](C[C@@]3(C)O[C@@H]3[C@H]3OC(=O)C(=C)[C@@H]31)OC2=O` [NSC100046] is 0.2949.
For `C=C1C(=O)O[C@H]2[C@H]1[C@@H](OC(=O)C=C(C)C)CC1=C[C@@H](C[C@@]3(C)O[C@@H]23)OC1=O` [NSC102817], the “Pearson's Correlation Coeff” value turned out to be 0.2813.
Same read-out and setting: the figure for `Cc1c(CNc2ccc(Cl)c(C(=O)NC(CC(=O)O)C(=O)O)c2)ccc2nc(N)nc(N)c12` (centres unmarked) [NSC132483] is 0.3151; for `Nc1nc(N)c2cc(CNc3ccc(C(=O)NC(CC(=O)O)C(=O)O)c(Cl)c3)ccc2n1` (centres unmarked) [NSC134033] it is 0.2800.
Take `CCCCc1[nH]ccc2c(C)c3nc4ccccc4c3cc12` [NSC142055]: the “Pearson's Correlation Coeff” value came to 0.3935.
Turning to `Cc1c2cnccc2c(C)c2c1c1ccccc1n2CCOC(=O)c1ccccc1` [NSC163443], the “Pearson's Correlation Coeff” value is listed as 0.2891.
Same read-out and setting: the figure for `CN(Cc1cnc2nc(N)nc(N)c2n1)c1ccc(C(=O)N[C@@H](CCC(=O)O)C(=O)O)c2ccccc12` [NSC174121] is 0.2662; for `Cc1c2ccncc2c(C)c2c1[nH]c1ccc(Cl)cc12` [NSC176326] it is 0.3552.
Turning to `CCc1c(CNc2ccc(C(=O)NC(CC(=O)O)C(=O)O)cc2)ccc2nc(N)nc(N)c12` (centres unmarked) [NSC184692], the “Pearson's Correlation Coeff” value is 0.2971.
As for `CC[C@@]1(O)C[C@H](O[C@H]2C[C@H](N(C)C)[C@H](O)[C@H](C)O2)c2c(cc3c(c2O)C(=O)c2c(O)ccc(O)c2C3=O)[C@H]1C(=O)OC` [NSC267229], the “Pearson's Correlation Coeff” value is 0.3505.
Same read-out and setting: the figure for `COc1cccc2c1C(=O)c1c(O)c3c(c(O)c1C2=O)C[C@@](O)(C(C)=O)C[C@@H]3OC1CC(N(Cc2ccccc2)Cc2ccccc2)C(O)C(C)O1.Cl` (some centres unmarked) [NSC268242] is 0.2268; for `O=C([O-])c1ccc(C(=O)[O-])c(C(=O)[O-])c1.[H+].[NH-]C1CCCCC1[NH-].[Pt+4]` [NSC271674] it is 0.2678; for `Cc1cc(N(CCOS(C)(=O)=O)CCOS(C)(=O)=O)ccc1C=Nc1ccc(-c2nc(Cc3ccccc3)sc2C)cc1` [NSC281817] it is 0.2646.
Take `CCCOc1ccc(-c2nc(-c3ccc(N=Cc4ccc(N(CCOS(C)(=O)=O)CCOS(C)(=O)=O)cc4C)cc3)cs2)cc1` [NSC281818]: the “Pearson's Correlation Coeff” value is 0.2476.
Still for that read-out and setting: the figure for `Nc1ncnc2c1nc(Cl)n2[C@@H]1O[C@@H]2COP(=O)(O)O[C@H]2[C@H]1O` [NSC284751] is 0.2759.
On the same count and under the same terms, the figure for `C=C1C(=O)O[C@@H]2C[C@H]1CC[C@]1(C)O[C@H]1CC/C(C)=C/CC[C@]2(C)O` [NSC285706] is 0.3654; for `CC(C)(C)N1CC1CNC(=O)C(=O)NCC1CN1C(C)(C)C` (centres unmarked) [NSC298276] it is 0.3398; for `CN(C)CCN1C(=O)c2cccc3cc([N+](=O)[O-])cc(c23)C1=O` [NSC300288] it is 0.2734.
On the same count and under the same terms, the figure for `CCc1nc(N)nc(N)c1-c1ccc(Cl)c([N+](=O)[O-])c1` [NSC302325] is 0.2979; for `CCc1nc(N)nc(N)c1-c1ccc(Cl)c(N=[N+]=[N-])c1` [NSC319947] it is 0.3098.
For `CCc1nc(N)nc(N)c1-c1ccc(Cl)c(N=NN(C)C)c1` [NSC330465], the “Pearson's Correlation Coeff” value stood at 0.2872.
Take `Cc1c(-c2ccc(-c3ccccc3F)cc2)nc2ccc(F)cc2c1C(=O)O` [NSC368390]: the “Pearson's Correlation Coeff” value is 0.2331.
The same measure, in the same setting: the figure for `Nc1ccn([C@@H]2C=C(CO)[C@@H](O)[C@H]2O)c(=O)n1` [NSC375575] is 0.2400; for `CCc1nc(N)nc(N)c1-c1ccc(NC)c([N+](=O)[O-])c1` [NSC382034] it is 0.3302.
Same read-out and setting: the figure for `CCc1nc(N)nc(N)c1-c1ccc(N(C)Cc2ccccc2)c([N+](=O)[O-])c1` [NSC382035] is 0.3180.
On the same count and under the same terms, the figure for `CCc1nc(N)nc(N)c1-c1ccc(NCCc2ccccc2)c([N+](=O)[O-])c1` [NSC382049] is 0.3279.
As to `CCc1nc(N)nc(N)c1-c1ccc2c(c1)nnn2CCc1ccccc1` [NSC382053], the “Pearson's Correlation Coeff” value was 0.3841.
Still for that read-out and setting: the figure for `CCc1nc(N)nc(N)c1-c1ccc2nn(-c3ccccc3)[n+]([O-])c2c1` [NSC382054] is 0.3151; for `COc1ccc(C2COc3cc(O)c(O)cc3C2)cc1` (centres unmarked) [NSC600285] it is 0.2935; for `Cc1ccc(C2COc3cc(O)c(O)cc3C2)cc1` (centres unmarked) [NSC600286] it is 0.2177.
As for `CCc1nc(N)nc(N)c1-c1ccc([N+](=O)[O-])c(Cl)c1` [NSC602313], the “Pearson's Correlation Coeff” value amounted to 0.3012.
As to `O=S1(=O)CCC2=CC(C(F)(F)F)=CC(C(F)(F)F)=CN21` [NSC605440], the “Pearson's Correlation Coeff” value worked out at 0.2658.
Still for that read-out and setting: the figure for `CS(C)=O.[Cl][Pt][Cl].c1ccc2ncccc2c1` [NSC632790] is 0.2677; for `Nc1nc(N)c2nc(CNc3ccc(C(=O)N[C@@H](CCCNC(=O)c4ccccc4C(=O)O)C(=O)O)cc3)cnc2n1` [NSC633713] it is 0.2908.
Still for that read-out and setting: the figure for `COc1ccc(C(=O)c2cc(OC)c(OC)c(OC)c2)cc1` [NSC638498] is 0.2464; for `COc1cc([C@@H]2c3[nH]c4ccccc4c3C[C@H]3COC(=O)N32)cc(OC)c1O` [NSC640737] it is 0.2176; for `COc1ccc(-c2oc3cc(O)c(OC)c(O)c3c(=O)c2O)cc1` [NSC641548] it is 0.2632.
Still for that read-out and setting: the figure for `CN(C)CCNc1ccc2nnn3c4ccc(Cl)cc4c(=O)c1c23` [NSC645818] is 0.3377; for `CC1=C(N2CC2)C(=O)C(C)=C(N2CC2)C1=O` [NSC646714] it is 0.3262; for `COc1cc(/C=C2\CCC/C(=C\c3ccc(O)c(OC)c3)C2=O)ccc1O` [NSC652893] it is 0.2821.
Regarding `O=c1cc(-c2ccccc2F)[nH]c2cc3c(cc12)OCO3` [NSC656158], the “Pearson's Correlation Coeff” value was determined as 0.2218.
Consider `O=c1cc(-c2cccc(OCc3ccccc3)c2)[nH]c2cc3c(cc12)OCO3` [NSC657279], for which the “Pearson's Correlation Coeff” value came to 0.2253.
On to `CCCOc1cc2c(cc1O)CC[C@@H]1[C@@H]2CC[C@]2(C)[C@@H](O)CC[C@@H]12` [NSC671041], for which the “Pearson's Correlation Coeff” value is 0.2610.
Still for that read-out and setting: the figure for `COc1ccc2cc(CNCCCCCCCCNCc3ccc4cc(OC)ccc4c3)ccc2c1` [NSC676427] is 0.1843.
